The text below walks through data of ChEMBL document CHEMBL5058643, “Data for DCP probe BI-2081” (2022).

Details in all cases: Compound concentration 10.0 uM
In experiment [1] the target is 5-hydroxytryptamine receptor 1D (Homo sapiens) (UniProt P28221).
The target in experiment [2] is Histamine H3 receptor (Homo sapiens) (UniProt Q9Y5N1).
For experiment [3], the target named is D(2) dopamine receptor (Homo sapiens) (UniProt P14416).
For experiment [4], the target named is T1, Alpha-1B adrenergic receptor (Homo sapiens) (UniProt P35368).
T1 sequence (whole entry): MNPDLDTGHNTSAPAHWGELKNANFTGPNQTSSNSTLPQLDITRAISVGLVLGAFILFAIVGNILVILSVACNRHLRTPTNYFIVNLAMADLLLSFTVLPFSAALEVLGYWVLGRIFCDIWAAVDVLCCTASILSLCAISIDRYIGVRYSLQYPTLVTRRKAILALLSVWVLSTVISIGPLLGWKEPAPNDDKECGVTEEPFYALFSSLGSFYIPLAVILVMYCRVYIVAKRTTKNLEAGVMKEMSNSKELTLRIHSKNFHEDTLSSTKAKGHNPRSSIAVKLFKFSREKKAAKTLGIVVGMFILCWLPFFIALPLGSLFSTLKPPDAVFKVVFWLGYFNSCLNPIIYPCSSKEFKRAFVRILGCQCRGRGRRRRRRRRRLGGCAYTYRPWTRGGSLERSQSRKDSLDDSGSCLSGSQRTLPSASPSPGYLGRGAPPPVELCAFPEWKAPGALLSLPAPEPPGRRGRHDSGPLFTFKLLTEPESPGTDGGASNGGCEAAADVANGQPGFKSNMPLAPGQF

In experiment [5] the target is Muscarinic acetylcholine receptor M5 (Homo sapiens) (UniProt P08912).
Experiment [6] deals with T2, Muscarinic acetylcholine receptor M2 (Homo sapiens) (UniProt P08172).
T2 sequence (whole entry): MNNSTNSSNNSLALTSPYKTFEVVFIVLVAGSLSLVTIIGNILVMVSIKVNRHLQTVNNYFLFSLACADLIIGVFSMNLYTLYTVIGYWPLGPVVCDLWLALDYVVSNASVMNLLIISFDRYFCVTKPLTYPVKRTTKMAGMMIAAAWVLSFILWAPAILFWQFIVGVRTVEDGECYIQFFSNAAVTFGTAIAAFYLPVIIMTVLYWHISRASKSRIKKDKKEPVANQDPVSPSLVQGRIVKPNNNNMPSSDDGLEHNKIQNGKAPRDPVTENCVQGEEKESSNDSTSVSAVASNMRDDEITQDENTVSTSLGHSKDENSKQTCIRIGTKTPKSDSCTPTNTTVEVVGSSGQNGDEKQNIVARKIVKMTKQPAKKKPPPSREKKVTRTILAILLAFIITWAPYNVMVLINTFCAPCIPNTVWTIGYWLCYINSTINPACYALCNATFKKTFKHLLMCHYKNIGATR

Experiment [7] addresses Histamine H1 receptor (Homo sapiens) (UniProt P35367).
Experiment [8] addresses T3, Alpha-2A adrenergic receptor (Homo sapiens) (UniProt P08913).
T3 sequence (whole entry): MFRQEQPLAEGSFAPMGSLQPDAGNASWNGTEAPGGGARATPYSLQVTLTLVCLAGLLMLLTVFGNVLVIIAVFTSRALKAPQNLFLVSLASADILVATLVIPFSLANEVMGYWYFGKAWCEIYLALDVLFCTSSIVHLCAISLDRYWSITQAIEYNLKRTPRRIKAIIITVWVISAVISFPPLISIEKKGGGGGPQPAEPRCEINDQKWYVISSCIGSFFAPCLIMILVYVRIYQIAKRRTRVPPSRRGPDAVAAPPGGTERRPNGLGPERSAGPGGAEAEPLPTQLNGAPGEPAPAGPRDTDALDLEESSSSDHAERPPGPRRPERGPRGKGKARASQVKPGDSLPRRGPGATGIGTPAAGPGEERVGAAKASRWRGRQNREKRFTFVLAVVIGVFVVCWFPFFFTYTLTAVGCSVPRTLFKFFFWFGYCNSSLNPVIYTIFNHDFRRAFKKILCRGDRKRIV

Experiment [9] addresses Mu-type opioid receptor (Homo sapiens) (UniProt P35372).
For experiment [10], the target named is Cholecystokinin receptor type A (Homo sapiens) (UniProt P32238). As to the kind of experiment: CCKA/H Eurofins SafetyScreen44 (BI).
For experiment [11], the target named is 5-hydroxytryptamine receptor 7 (Homo sapiens) (UniProt P34969).
In experiment [12] the target is Kappa-type opioid receptor (Homo sapiens) (UniProt P41145).
Experiment [13] deals with T4, 5-hydroxytryptamine receptor 3A (Homo sapiens) (UniProt P46098).
T4 sequence (whole entry): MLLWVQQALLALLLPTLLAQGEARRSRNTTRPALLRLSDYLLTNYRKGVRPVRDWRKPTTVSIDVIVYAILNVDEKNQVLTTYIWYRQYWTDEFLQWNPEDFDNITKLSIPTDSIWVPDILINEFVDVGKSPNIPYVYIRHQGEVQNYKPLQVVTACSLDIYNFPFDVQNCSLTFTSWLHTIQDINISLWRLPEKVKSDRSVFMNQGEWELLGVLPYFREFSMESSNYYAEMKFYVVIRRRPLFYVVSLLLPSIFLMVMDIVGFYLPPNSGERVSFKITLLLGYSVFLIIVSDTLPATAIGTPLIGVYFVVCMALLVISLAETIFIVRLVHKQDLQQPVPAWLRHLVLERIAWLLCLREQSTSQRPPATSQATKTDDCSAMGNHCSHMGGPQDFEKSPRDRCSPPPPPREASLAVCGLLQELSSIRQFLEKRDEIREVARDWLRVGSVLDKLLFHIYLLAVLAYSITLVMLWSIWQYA

Experiment [14] addresses GABA-A receptor; anion channel (Rattus norvegicus) (UniProt O09028+P15431+P18506+P18508+P19969+P20236+P23574+P23576+P28471+P28473+P30191+P62813+P63079+P63138+Q91ZM7+Q9ES14).
For experiment [15], the target named is Histamine H4 receptor (Homo sapiens) (UniProt Q9H3N8).
Experiment [16] concerns the target Muscarinic acetylcholine receptor M3 (Homo sapiens, UniProt P20309).
The target of experiment [17] is D(1A) dopamine receptor (Homo sapiens) (UniProt P21728).
D(1A) dopamine receptor (Homo sapiens), sequence (P21728 whole entry): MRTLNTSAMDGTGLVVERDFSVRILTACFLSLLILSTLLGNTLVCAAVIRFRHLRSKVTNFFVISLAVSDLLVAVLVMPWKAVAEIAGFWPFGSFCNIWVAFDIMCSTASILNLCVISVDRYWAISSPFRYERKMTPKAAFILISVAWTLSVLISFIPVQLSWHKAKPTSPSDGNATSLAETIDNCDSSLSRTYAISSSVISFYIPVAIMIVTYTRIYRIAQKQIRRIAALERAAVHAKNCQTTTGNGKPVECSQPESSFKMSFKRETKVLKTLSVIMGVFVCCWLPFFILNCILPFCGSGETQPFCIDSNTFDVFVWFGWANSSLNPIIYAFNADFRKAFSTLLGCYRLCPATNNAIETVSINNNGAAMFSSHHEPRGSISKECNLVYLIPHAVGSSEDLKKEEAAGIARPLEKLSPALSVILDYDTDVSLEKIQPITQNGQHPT

Histamine H3 receptor (Homo sapiens), sequence (Q9Y5N1 whole entry): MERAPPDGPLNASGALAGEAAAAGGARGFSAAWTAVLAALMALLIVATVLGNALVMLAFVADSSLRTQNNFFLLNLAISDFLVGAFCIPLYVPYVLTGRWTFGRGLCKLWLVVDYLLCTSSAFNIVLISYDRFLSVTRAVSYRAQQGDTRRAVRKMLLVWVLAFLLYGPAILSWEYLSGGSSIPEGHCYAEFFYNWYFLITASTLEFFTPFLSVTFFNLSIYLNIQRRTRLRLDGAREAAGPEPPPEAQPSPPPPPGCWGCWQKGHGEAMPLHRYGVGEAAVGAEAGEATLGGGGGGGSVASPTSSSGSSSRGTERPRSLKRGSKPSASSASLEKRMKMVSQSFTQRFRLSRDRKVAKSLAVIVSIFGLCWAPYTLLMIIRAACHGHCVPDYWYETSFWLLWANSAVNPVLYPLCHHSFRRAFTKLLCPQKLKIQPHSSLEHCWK
Histamine H4 receptor (Homo sapiens), sequence (Q9H3N8 whole entry): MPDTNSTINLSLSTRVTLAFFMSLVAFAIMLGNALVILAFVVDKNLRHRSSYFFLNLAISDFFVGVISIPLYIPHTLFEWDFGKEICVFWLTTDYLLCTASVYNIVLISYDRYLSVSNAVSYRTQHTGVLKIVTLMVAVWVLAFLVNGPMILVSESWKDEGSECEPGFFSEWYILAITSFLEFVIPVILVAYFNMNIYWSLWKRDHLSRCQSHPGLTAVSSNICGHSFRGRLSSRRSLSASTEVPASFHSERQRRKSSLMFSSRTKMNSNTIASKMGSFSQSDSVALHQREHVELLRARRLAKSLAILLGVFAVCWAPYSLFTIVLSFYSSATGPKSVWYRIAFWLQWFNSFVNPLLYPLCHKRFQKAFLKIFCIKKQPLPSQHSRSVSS
5-hydroxytryptamine receptor 7 (Homo sapiens), sequence (P34969 whole entry): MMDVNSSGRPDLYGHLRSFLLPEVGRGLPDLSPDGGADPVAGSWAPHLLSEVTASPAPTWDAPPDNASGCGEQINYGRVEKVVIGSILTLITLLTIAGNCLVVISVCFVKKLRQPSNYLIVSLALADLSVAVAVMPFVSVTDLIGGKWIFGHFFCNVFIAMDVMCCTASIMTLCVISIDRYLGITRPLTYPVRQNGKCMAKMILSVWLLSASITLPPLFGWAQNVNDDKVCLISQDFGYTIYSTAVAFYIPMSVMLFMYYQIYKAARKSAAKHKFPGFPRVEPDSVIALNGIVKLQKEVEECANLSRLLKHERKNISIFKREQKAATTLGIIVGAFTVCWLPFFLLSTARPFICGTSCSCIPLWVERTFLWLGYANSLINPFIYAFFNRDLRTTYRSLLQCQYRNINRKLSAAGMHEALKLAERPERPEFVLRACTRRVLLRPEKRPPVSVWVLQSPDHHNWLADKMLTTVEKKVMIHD
5-hydroxytryptamine receptor 1D (Homo sapiens), sequence (P28221 whole entry): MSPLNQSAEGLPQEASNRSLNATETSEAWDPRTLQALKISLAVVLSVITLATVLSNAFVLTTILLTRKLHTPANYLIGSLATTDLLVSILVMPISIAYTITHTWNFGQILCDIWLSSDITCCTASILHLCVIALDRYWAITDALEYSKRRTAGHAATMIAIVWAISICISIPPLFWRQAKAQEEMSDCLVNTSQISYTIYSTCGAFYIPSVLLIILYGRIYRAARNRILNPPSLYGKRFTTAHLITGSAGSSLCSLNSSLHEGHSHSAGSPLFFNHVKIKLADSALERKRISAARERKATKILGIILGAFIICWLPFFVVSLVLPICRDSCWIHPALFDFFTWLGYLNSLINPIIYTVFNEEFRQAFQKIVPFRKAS
Kappa-type opioid receptor (Homo sapiens), sequence (P41145 whole entry): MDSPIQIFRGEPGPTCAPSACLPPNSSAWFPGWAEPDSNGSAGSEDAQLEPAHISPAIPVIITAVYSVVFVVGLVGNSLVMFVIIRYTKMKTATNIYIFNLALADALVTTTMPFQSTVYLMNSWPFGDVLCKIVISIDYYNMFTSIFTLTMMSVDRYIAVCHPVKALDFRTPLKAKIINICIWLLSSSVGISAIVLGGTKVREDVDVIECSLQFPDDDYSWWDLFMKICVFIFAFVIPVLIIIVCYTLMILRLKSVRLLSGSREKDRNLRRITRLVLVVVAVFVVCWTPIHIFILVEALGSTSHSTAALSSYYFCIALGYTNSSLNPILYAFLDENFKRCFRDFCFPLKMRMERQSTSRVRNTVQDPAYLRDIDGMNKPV
Muscarinic acetylcholine receptor M3, sequence (P20309 whole entry, looked up): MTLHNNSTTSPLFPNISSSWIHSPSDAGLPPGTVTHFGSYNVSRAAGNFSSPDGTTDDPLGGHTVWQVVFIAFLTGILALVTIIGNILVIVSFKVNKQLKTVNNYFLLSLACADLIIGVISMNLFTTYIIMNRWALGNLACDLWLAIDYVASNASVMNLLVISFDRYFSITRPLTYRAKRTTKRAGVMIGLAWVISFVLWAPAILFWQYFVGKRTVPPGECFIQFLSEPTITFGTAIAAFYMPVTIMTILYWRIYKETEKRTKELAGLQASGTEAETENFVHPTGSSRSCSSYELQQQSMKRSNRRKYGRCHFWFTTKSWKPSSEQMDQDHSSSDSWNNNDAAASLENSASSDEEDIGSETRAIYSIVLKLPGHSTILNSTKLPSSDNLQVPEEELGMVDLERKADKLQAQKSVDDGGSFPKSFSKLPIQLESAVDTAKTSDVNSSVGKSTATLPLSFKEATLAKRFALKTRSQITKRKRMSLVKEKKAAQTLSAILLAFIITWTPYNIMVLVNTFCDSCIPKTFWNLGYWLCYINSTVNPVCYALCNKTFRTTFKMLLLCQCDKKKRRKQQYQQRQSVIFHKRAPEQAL
Histamine H1 receptor (Homo sapiens), sequence (P35367 whole entry): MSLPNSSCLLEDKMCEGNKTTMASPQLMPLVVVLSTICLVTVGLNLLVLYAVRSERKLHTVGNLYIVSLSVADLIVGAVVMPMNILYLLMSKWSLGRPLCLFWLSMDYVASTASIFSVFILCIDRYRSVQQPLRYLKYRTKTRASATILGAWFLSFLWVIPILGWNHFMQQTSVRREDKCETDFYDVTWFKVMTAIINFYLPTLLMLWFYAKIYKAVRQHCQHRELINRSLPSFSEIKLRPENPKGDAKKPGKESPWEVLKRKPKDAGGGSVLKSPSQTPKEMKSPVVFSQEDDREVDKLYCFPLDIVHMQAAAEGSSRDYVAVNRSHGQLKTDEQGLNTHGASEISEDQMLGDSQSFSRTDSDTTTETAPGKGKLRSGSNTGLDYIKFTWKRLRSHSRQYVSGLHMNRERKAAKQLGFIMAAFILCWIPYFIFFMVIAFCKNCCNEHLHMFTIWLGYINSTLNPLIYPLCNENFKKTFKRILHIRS
Muscarinic acetylcholine receptor M5 (Homo sapiens), sequence (P08912 whole entry): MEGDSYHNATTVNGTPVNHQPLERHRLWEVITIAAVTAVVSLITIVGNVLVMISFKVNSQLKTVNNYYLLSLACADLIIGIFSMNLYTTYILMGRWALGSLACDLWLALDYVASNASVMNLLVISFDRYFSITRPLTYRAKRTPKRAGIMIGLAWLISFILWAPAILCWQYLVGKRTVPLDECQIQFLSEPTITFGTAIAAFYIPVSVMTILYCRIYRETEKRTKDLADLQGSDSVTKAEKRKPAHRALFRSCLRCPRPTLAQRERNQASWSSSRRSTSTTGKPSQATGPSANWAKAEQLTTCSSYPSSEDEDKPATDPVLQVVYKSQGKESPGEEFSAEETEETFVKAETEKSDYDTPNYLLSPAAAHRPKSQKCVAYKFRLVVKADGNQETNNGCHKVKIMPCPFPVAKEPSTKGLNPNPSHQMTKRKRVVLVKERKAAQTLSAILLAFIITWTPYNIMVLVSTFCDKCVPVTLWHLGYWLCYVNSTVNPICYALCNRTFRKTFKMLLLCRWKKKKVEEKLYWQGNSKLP
D(2) dopamine receptor (Homo sapiens), sequence (P14416 whole entry): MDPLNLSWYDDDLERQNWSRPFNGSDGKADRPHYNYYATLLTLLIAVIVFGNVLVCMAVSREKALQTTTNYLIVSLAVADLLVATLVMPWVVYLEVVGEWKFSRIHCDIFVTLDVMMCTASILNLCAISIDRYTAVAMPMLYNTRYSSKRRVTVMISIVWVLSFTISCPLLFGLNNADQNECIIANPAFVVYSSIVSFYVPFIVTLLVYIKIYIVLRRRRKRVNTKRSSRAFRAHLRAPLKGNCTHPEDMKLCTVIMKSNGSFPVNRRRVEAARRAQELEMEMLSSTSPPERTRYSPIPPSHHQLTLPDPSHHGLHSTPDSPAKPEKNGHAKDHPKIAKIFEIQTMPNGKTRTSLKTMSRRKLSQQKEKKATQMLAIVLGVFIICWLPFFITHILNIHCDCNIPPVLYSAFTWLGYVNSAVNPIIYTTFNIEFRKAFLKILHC
Mu-type opioid receptor (Homo sapiens), sequence (P35372 whole entry): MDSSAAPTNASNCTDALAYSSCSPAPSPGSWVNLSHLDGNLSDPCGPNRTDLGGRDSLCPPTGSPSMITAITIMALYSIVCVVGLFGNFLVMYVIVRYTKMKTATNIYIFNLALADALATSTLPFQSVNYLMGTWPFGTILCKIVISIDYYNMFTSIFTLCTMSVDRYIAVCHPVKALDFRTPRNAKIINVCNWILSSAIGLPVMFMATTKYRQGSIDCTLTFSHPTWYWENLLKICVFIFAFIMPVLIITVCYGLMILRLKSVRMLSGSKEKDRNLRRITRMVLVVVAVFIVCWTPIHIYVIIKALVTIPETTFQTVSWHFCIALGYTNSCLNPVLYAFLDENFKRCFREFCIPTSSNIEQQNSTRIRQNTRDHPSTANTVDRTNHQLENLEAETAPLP

`Cc1cc(OCCC(C)(C)O)cc(C)c1-c1ccc(F)c2c1CC[C@H]2Oc1ccc2c(c1)OC[C@H]2CC(=O)O`: the inhibition (in general, the relative decrease from the control value, in per cent) was 6.65% in [1]; 9.84% in experiment [2]; 3.28% in [3]; -7.32% in experiment [4]; -4.38% in experiment [5]; -3.23% in [6]. The inhibition is 10.3% in experiment [7]; 16.6% in [8]; 15.6% in [9]; 13% in [11]; 8.37% in experiment [12]; 9.64% in [13]. The inhibition is 66.7% in experiment [14], -5.97% in experiment [15], 68.2% in experiment [16] and 0.05% in [17]. In [10], the residual activity (commonly the signal under treatment as a percentage of the control signal) is 103%.

Take `COCCCS(=O)(=O)c1cc(C)c(-c2ccc(F)c3c2CC[C@H]3Oc2ccc3c(c2)OC[C@H]3CC(=O)O)c(C)c1`: the inhibition is -3.85% in experiment [1]; 3% in [2]; 8.15% in [3]; -4.9% in experiment [4]; -1.63% in experiment [5]; -3.61% in experiment [6]. The inhibition in experiment [7] is -1.92%; in experiment [8], 5.14%; in experiment [9], 13.7%; in experiment [11], 3.29%; in experiment [12], 20.6%; in experiment [13], 1.85%. The inhibition in [14] was 30.7%; in experiment [15], -2.95%; in [16], -1.57%; in experiment [17] it was -9.32%. For the same compound, the residual activity in experiment [10] was 82%.
